This passage reports IC50 results from PubChem BioAssay AID624167 (Sanford-Burnham Center for Chemical Genomics, 2012).

As a reminder, the IC50 is the concentration at which inhibition is half-maximal.

The target in experiment [1] is PEG-3 (UniProt Q6IN02). The experiment in a line: inhibition of PEG-3 promoter-driven reporter – cell-based, HeLa, luciferase, CREF/GAPDH counter-screen panel, dose response (AID 624167). Conditions: HeLa PEG-Prom luciferase reporter, overnight, CREF/GAPDH counter-screens, mean of runs. For orientation: The purpose of a counterscreen is to sort out artefacts and off-target activity.
Chain of PEG-3 (UniProt Q6IN02) (Q6IN02 whole entry, looked up): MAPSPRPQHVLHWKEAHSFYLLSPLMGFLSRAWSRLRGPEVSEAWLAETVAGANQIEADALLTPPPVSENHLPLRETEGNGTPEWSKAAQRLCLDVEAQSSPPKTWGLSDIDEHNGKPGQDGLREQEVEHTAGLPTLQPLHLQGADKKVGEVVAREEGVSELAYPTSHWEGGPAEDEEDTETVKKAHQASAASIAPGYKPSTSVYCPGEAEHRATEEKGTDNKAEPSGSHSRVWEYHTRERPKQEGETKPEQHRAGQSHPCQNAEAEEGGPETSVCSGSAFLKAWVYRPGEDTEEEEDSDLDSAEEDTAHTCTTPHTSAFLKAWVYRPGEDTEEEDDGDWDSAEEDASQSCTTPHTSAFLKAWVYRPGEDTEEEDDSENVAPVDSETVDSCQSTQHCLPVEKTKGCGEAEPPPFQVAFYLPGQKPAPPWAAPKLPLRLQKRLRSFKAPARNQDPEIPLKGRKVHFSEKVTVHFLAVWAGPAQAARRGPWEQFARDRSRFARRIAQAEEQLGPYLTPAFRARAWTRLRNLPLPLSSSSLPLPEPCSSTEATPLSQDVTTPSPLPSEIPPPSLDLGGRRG

Experiment [2] relates to PEG-3. The experiment is described as above. As to conditions: HeLa PEG-Prom luciferase reporter, overnight, CREF/GAPDH counter-screens. A general note: Reporter assays use an easily measured gene product as a stand-in for the process of interest.
[3] abbreviates: run 1, dose range 1, individual replicate IC50 per panel.
Setting [4] is: run 2, dose range 1, individual replicate IC50 per panel.

Calls of active or inactive are those of the source.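 How the source made its calls: active means mean IC50 for reducing PEG3 promoter reporter signal at or below a set limit, with IC50 above the limit in both counter screens; inactive means the rest, including counter screen hits.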

Regarding `O=C(CCN1C(=O)/C(=C/c2cccs2)SC1=S)N1CCCCC1`, in experiment [1], the IC50 result was “inactive”. Moreover, the figures for the IC50 in experiment [2] (setting [3]) and in experiment [2] (setting [4]) were 24.6 µM and 25.5 µM, respectively.

Turning to `CCCCCCC=C1CCC(CN2CCCC2)C1=O` (stereo unspecified), the IC50 result in experiment [1] was “inactive”. Also, the values for the IC50 in experiment [2] (setting [3]) and in experiment [2] (setting [4]) were 35.6 µM and 29.6 µM, respectively.

On to `Cc1cc(C(=O)COC(=O)c2ccccc2Br)c(C)n1CC1CCCO1` (stereo unspecified), for which the IC50 result in experiment [1] was “inactive”. The IC50 came out at 3.07 µM in experiment [2] (setting [3]) and 98.5 µM in experiment [2] (setting [4]).

With `CC(=O)Nc1ccc(S(=O)(=O)N(Cc2cccnc2)Cc2cc3ccccc3[nH]c2=O)cc1`, the IC50 in experiment [1] was > 100 µM (inactive); in experiment [2] (setting [3]), more than 100 µM; in experiment [2] (setting [4]), more than 100 µM.

Consider `CCn1cc(CN2CCC(C(=O)Nc3cccc(-c4cccc(Cl)c4)c3)CC2)c(C)n1`, for which the results for the IC50 in experiment [1], in experiment [2] (setting [3]) and in experiment [2] (setting [4]) were 14.5 µM, 17.7 µM and 11.2 µM, respectively.

Turning to `CCc1ccc(OCCNc2cc(N3CCNC(C)C3)ccc2[N+](=O)[O-])cc1` (stereo unspecified), the IC50 in experiment [1] was 12.7 µM; in experiment [2] (setting [3]), 16.3 µM; in experiment [2] (setting [4]), 8.98 µM.

As to `COc1ccc(/C=C/C(=O)c2ccc3c(c2)OCCO3)cc1[N+](=O)[O-]`, the IC50 in experiment [1] is 17 µM; in experiment [2] (setting [3]), 17.2 µM; in experiment [2] (setting [4]), 16.7 µM.

Regarding `COc1cccc(CN(C)C(=O)C(CCSC)NS(=O)(=O)c2ccc3c(c2)OCCO3)c1OC` (stereo unspecified), the IC50 entry in experiment [1] was “inactive”. Also, the IC50 in experiment [2] (setting [3]) stood at 61 µM; in experiment [2] (setting [4]) it was 8.89 µM.

Turning to `COc1ccccc1N1CCN(C(=O)c2sc3ncnc(N4CCN(c5ccccn5)CC4)c3c2C)CC1`, the IC50 entry in experiment [1] is “inactive”. The IC50 in experiment [2] (setting [3]) was determined as 27.6 µM; in experiment [2] (setting [4]) it was 19.7 µM.

As for `CCC(=O)NC(c1cccs1)c1cc([N+](=O)[O-])c2cccnc2c1O` (stereo unspecified), the IC50 in experiment [1] was 12.1 µM; in experiment [2] (setting [3]), 12.4 µM; in experiment [2] (setting [4]), 11.7 µM.

For the compound `CC1=CC(O)C(O)C2(C)C1CC1OC(=O)C(O)C3C(C)C(O)C4(O)OCC13C42` (stereo unspecified), the IC50 result in experiment [1] is “inactive”. In addition, the IC50 in experiment [2] (setting [3]) is 44.9 µM; in experiment [2] (setting [4]) it was 84.3 µM.

As to `CC(C)c1ccc(NC(=O)Nc2nc(C(C)N)cs2)cc1` (stereo unspecified), the IC50 in experiment [1] is 17 µM; in experiment [2] (setting [3]), 20.1 µM; in experiment [2] (setting [4]) it was 13.8 µM.

As to `Cc1cc(Cl)n2ncc(-c3ccccc3)c2n1`, the IC50 entry in experiment [1] was “inactive”. Also, the IC50 in experiment [2] (setting [3]) is 40.1 µM; in experiment [2] (setting [4]), more than 100 µM.

Turning to `CCN1CCN(CCNC(=O)c2ccc(/C=C3\Sc4ccccc4N(Cc4ccccc4F)C3=O)cc2)CC1`, the IC50 is 14.9 µM in experiment [1], 20.2 µM in experiment [2] (setting [3]) and 9.63 µM in experiment [2] (setting [4]).

In the case of `CCOC(=O)c1c(C)[nH]c(C(=O)OCC(=O)Nc2sccc2C(N)=O)c1C`, the IC50 entry in experiment [1] is “inactive”. In addition, the IC50 in experiment [2] (setting [3]) is 31.1 µM; in experiment [2] (setting [4]), 68.7 µM.

Regarding `CCN1CCN(c2ncc(C(=O)Nc3cc(Cl)ccc3OC)c3ccccc23)CC1`, the IC50 entry in experiment [1] was “inactive”. Also, the IC50 in experiment [2] (setting [3]) worked out at 26.6 µM; in experiment [2] (setting [4]), 51.4 µM.

`CC(=O)Nc1cccc(-c2cc(NC=O)c3ncc(-c4ccc(C(C)=O)cc4)n3c2)c1`: the IC50 result in experiment [1] was “inactive”. Further, the IC50 is 6 µM in experiment [2] (setting [3]) and more than 100 µM in experiment [2] (setting [4]).

`O=c1c2c3c(sc2nc(N2CCNCC2)n1CCc1ccccc1)CCCCC3`: the IC50 result in experiment [1] is “inactive”. In addition, the IC50 in experiment [2] (setting [3]) turned out to be 32.1 µM; in experiment [2] (setting [4]) it was 17.4 µM.

As for `O=C(CSc1nc(Nc2ccccc2)nc(N2CCOCC2)n1)Nc1cc(Cl)ccc1O`, the IC50 in experiment [1] was 13.7 µM; in experiment [2] (setting [3]) it was 13 µM; in experiment [2] (setting [4]), 14.5 µM.

As for `COc1cccc(Nc2nc(C(N)Cc3ccccc3)cs2)n1` (stereo unspecified), the IC50 in experiment [1] is 18.2 µM; in experiment [2] (setting [3]), 20.4 µM; in experiment [2] (setting [4]), 15.9 µM.

In the case of `CCOC(=O)CN(C(=O)CSc1nnc2c(n1)[nH]c1ccc(F)cc12)c1ccccc1`, the IC50 result in experiment [1] was “inactive”. Besides, the IC50 in experiment [2] (setting [3]) came out at 25 µM; in experiment [2] (setting [4]), 21.7 µM.

In the case of `CN(C)S(=O)(=O)c1cccc(NC(=O)CSc2cccc3cccnc23)c1`, the IC50 result in experiment [1] is “inactive”. The IC50 was 23.7 µM in experiment [2] (setting [3]) and 19.6 µM in experiment [2] (setting [4]).

On to `COc1ccc(C(c2nnnn2-c2c(C)cccc2C)N2CCC(n3c(=O)[nH]c4ccccc43)CC2)cc1` (stereo unspecified), for which the IC50 in experiment [1] was 11.3 µM; in experiment [2] (setting [3]), 11.4 µM; in experiment [2] (setting [4]) it was 11.3 µM.

On to `C[C@@H]1[C@H]2[C@@H]3CC[C@@H](C3)[C@H]2CN[C@H]1c1cn(Cc2ccccc2)c2ccccc12`, for which, in experiment [1], the IC50 entry is “inactive”. In addition, the IC50 in experiment [2] (setting [3]) amounted to 39 µM; in experiment [2] (setting [4]) it was 42.7 µM.

For the compound `COc1cccc(/C=N/NC(=O)c2c(-c3ccccc3)noc2C)c1O`, the IC50 entry in experiment [1] is “inactive”. Moreover, the IC50 is 42.2 µM in experiment [2] (setting [3]) and more than 100 µM in experiment [2] (setting [4]).

As to `CNC[C@H](CC1CCCCC1)NC[C@H](NCCC1CCCC1)[C@H](C)O`, the IC50 result in experiment [1] was “inactive”. In addition, the IC50 in experiment [2] (setting [3]) worked out at 37.6 µM; in experiment [2] (setting [4]) it was 12.4 µM.

Regarding `COc1cccc(NC(=O)Nc2cccc(C(=O)O)c2)c1`, the IC50 result in experiment [1] was “inactive”. The figures for the IC50 in experiment [2] (setting [3]) and in experiment [2] (setting [4]) were 15.1 µM and 30 µM, respectively.
